Test [1] has as its system TA3. The test can be described thus: Growth inhibition of mouse TA3 cells at 10^-4 M. Format: functional.
Test [2] deals with TA3. In words: Growth inhibition of mouse TA3 cells. Format: functional.

Activity calls are given as the source filed them. The calls are words filed in the database; no cut-off is given here.

Take `Cc1ncc(CO)c(N)c1O`: the “growth inhibition (GI)” value in test [1] was “inactive”. As for `Cc1ncc(CBr)c(N)c1O`, the inhibition of growth at 100 µM in test [1] (read-out: GI) is 30%. As to `Cc1ncc(CO)c(C(F)(F)F)c1O`, the ID50 in test [2] is 2 ×10⁻⁵ M. For `Cc1ncc(CO)c(/C=N/O)c1O`, the ID50 in test [2] is reported as 8 ×10⁻⁵ M. As for `Cc1ncc(CO)c(O)c1O`, the “growth inhibition (GI)” value in test [1] was “inactive”. In test [2], `Br.Cc1ncc(CO)c(Br)c1O` yielded an ID50 of 1 ×10⁻⁵ M.

These data come from ChEMBL document CHEMBL3272110, “Synthesis and biological properties of 4-amino- and 4-bromo-4-norpyridoxol. New approaches for the modification of the 4 position of vitamin B6” (1976).
